# Data from US9962341B2, “Active pharmaceutical ingredient (API) comprising cannabinoids for use in the treatment of cancer” (GW Pharma Limited, priority 2014, dated 2018).
# Where two headings read alike, the source gives them in different places.
# Test system: SKBR3
# Experiment: Cell viability (CellTiter-Blue, 72 h), SKBR3 breast cancer cells
# Assay type: cell-based
# Settings: for IC50: Homo sapiens; for effect (but only 50% effect): extent of effect reached
# Experimental: The cell lines tested in this Example were as follows. Breast cancer: MDA-MB-231; SK-BR3; and BT474. Liver cancer: HepG2.
# The phytocannabinoids were tested alone and in various ratioed combinations in media containing final concentrations of 10% and 1% foetal bovine serum at 72 h for the breast and prostate cancer lines and 1% foetal bovine serum for the liver cancer line HepG2.
# Each tumour cell line was maintained in vitro in RPMI 1640+10% heat inactivated FBS and 2 mM L-glutamine (growth media) at 37° C. in 5% CO2 and humidified conditions. The cells were harvested, washed, re-suspended into growth medium and counted. The cells were re-suspended into assay media (RPMI 1640+5% heat inactivated FBS+ and 2 mM L-glutamine) at 8×104-2×10^5 cells/ml (dependent upon cell type) and plated into the middle 240 wells of 384 well tissue culture plates (Corning CellBind, black-wall plates) 12.5 μl/well aliquots; 62.5 μl of growth media was aliquoted into the outer wells. There were 4 plates for each cell line. The plates were incubated overnight at 37° C., in 5% humidified CO2.
# The phytocannabinoid test compounds were prepared in 100% DMSO vehicle at a stock concentration of 10 mM.
# Starting with the 10 mM stock, the compounds were diluted to 125 μM in FBS-free growth media.
# These were diluted in FBS-free growth media to 125 μM before serial dilution.
# 5 volumes of CBD 10 mM stock was added to 1 volume of the other agent (also at 10 mM) and 4 volumes of DMSO. This made a final concentration of 5 mM:1 mM. This was then diluted in FBS-free growth media so the top concentration of CBD would be 125 μM (before serial dilution). Each compound and compound combination stock was serially diluted in FBS-free growth media (containing 1.25% v/v DMSO) from 125 μM to 41.7, 13.89, 4.63, 1.54, 0.514, 0.171, 0.057 and 0.019 μM (1.25× final assay concentrations). Vehicle was prepared at equivalent dilutions in assay media. The top final concentration of compound in the assay was always 100 μM so CBD5:1CBG was 100 μM CBD and 20 μM CBG.
# Taxotere SOC was prepared at a stock concentration of 1 mM in 100% DMSO. Taxotere was serially diluted from the stock solution into FBS-free growth media to 12.5 μM, then serially diluted in FBS-free growth media containing 1.25% DMSO to 4.17, 1.39, 0.46, 0.154, 0.051, 0.017, 0.006, 0.002 μM (1.25× final assay concentrations).
# This was then serially diluted in FBS-free growth media to 0.417, 0.139, 0.046, 0.0154, 0.0051, 0.0017, 0.0006, 0.0002 μM (1.25× final assay concentrations). This was plated as a positive control for the SKBR3 & BT474 cell lines. 50 μl per well of compound/vehicle dilutions was added to the plates in replicates of 6. Where applicable total volume in the well was made up to 62.5 μl with assay media.
# The plates were incubated for 72 h at 37° C. in 5% humidified CO2. To develop the plates, at 72 h, 10 μl of CellTiter-Blue™ reagent was added to each test/blank well. The plates were incubated at 37° C., 5% humidified CO2. Fluorescence was measured using a Flex II Station plate reader (570 nm excitation wavelength, 600 nm emission wavelength, 590 nm cut-off) after 3 h.
# The experimental conditions were the same as the experiment above, with the same compound dilutions and volumes for plating but using growth media containing 10% FBS rather than FBS-free media.
# The raw data values expressed in relative fluorescent units were normalised to the vehicle for each individual plate and any reduction in fluorescence indicated a decrease in viability.
# The data were analysed in GraphPad PRISM using a non-linear sigmoidal plot with variable slope (asymmetric five point linear regression) and where possible an IC50 value for each single compound and combination was generated.
# For the calculation, raw data values expressed in relative fluorescent units were normalised to the vehicle for each individual plate (set as 0%) and the reduction in fluorescence calculated as an increase in inhibition of viability.
# [1] = SK-BR-3, 72 h, read-out: IC50 values, SKBR3, 1% FBS, 72 h
# [2] = SK-BR-3, 72 h, read-out: IC50 values, SKBR3, 10% FBS, 72 h
# [3] = SK-BR-3, read-out: Dm (median effect dose), SKBR3, 1% FBS, Calcusyn median-effect analysis
SMILES,IC50 [1] [µM],IC50 [2] [µM],IC50 [3] [µM],"effect (but only 50% effect) (SKBR3, 1% FBS)","effect (but only 50% effect) (SKBR3, 10% FBS) [% effect)]"
"C=C(C)[C@@H]1CCC(C)=C[C@H]1c1c(O)cc(CCCCC)cc1O [CBD, Cannabidiol]",4,23,9.31,,
"C=C(C)[C@@H]1CCC(C)=C[C@H]1c1c(O)cc(CCCCC)c(C(=O)O)c1O [CBDA, Cannabidiolic acid]",14.5,~100,30,,
"CC(=O)O[C@@]12CO[C@@H]1C[C@H](O)[C@@]1(C)C(=O)[C@H](O)C3=C(C)[C@@H](OC(=O)[C@H](O)[C@@H](NC(=O)OC(C)(C)C)c4ccccc4)C[C@@](O)([C@@H](OC(=O)c4ccccc4)[C@H]21)C3(C)C [Taxotere, Docetaxel, reference compound]",< 0.001,< 0.001,,only 50%,50
"CCCCCc1cc(O)c(C/C=C(\C)CCC=C(C)C)c(O)c1C(=O)O [CBGA, Cannabigerolic acid]",10.6,> 100,16.8,,
"CCCCCc1cc(O)c(C/C=C(\C)CCC=C(C)C)c(O)c1 [CBG, Cannabigerol]",4,33,8.55,,
"CCCc1cc(O)c2c(c1)OC(C)(C)[C@@H]1CCC(C)=C[C@@H]21 [THCV, Tetrahydrocannabivarin]",10.8,30,18.3,,
